Measurements reported in patent publication US6054459A, “Substituted 1,2,3,4-tetrahydro-5-nitro-pyrimidines” (priority 1994, dated 2000).
Where two headings read alike, the source gives them in different places.

How the values were obtained:
Nephotettix cincticeps = assay: Nephotettix test; assay type: in vivo, Nephotettix cincticeps (green rice leafhopper); settings: 144 h, after 6d, read-out: Degree of destruction in % after 6d; for mortality at 1e-05 %: active compound concentration 0.00001 %; for mortality at 0.0001 %: active compound concentration 0.0001 %; for mortality at 0.001 %: active compound concentration 0.001 %
Procedure: Solvent: 7 parts by weight of dimethylformamide
(§1) Emulsifier: 1 part by weight of alkylaryl polyglycol ether
To produce a suitable preparation of active compound, 1 part by weight of active compound is mixed with the stated amount of solvent and the stated amount of emulsifier, and the concentrate is diluted with water to the desired concentration.
Rice seedlings (Oryza sativa) are treated by being dipped into the preparation of active compound of the desired concentration and are infested with larvae of the green rice leafhopper (Nephotettix cincticeps) while the seedlings are still moist.
After the desired period of time, the destruction in % is determined. 100% means that all the leafhoppers have been killed; 0% means that none of the leafhoppers have been killed.

Ctenocephalides felis = assay: In-vitro flea test (all stages of development); assay type: in vivo; settings: no adult fleas after 11/2 times the development time
Procedure: In-vitro flea test (all stages of development)
Test object: All stages (eggs, larvae, pupae and adults) of Ctenocephalides felis.
Test method: Bloodmeal is dried overnight in a shallow dish at approximately 70° C. and subsequently screened using a mesh size of 0.63 mm.
1.8 g portions of the bloodmeal which has been prepared in this manner are placed into plastic Petri dishes .o slashed. 9.8 cm.
Using an Eppendorf pipette, 0.2 ml of the substance are added to the 1.8 g portions of bloodmeal (dilution 1:10). This means that for a use concentration of 1 ppm, the aqueous solution must have a concentration of 10 ppm. The solution is applied dropwise and uniformly over the entire area covered by the bloodmeal.
The dishes which have been prepared in this manner are allowed to dry overnight. Using a suitable device, the substance, now in the form of dried lumps of bloodmeal, is broken up and distributed homogeneously in the Petri dish by swirling. To the test dishes which have been prepared in this manner there is now added a spatula--tipful of flea eggs which have been obtained by screening (and which are derived from experimentally infected cats). The dish is sealed using Parafilm and shaken vigorously.
The test materials are incubated at 25° C. and a relative humidity of 85%. At certain intervals, the dishes are examined for stages of development of the fleas.
Test criterion: The criterion for the in-vitro activity of a substance is defined as the inhibition of flea development, or a standstill during the development before reaching the adult stage.
Effective: No adult fleas found after 11/2 times the development time.
Ineffective: Adult fleas found after 11/2 times the development time.

[1] = test system: Lucilia cuprina res. larvae; assay: Test with resistant Lucilia cuprina larvae; assay type: in vivo; settings: for mortality at 100 ppm: Lucilia cuprina, read-out: effectiveness (degree of destruction)
Procedure: Test with resistant Lucilia cuprina larvae
Emulsifier: 35 parts by weight of ethylene glycol monomethyl ether 35 parts by weight of nonylphenol polyglycol ether
To produce a suitable preparation of active compound, three parts by weight of active compound are mixed with seven parts by weight of the abovementioned mixture and the concentrate thus obtained is diluted with water to the particular desired concentration.
About 20 Lucilia cuprina res. larvae are introduced into a test tube which contains approx. 1 cm^3 of horse meat and 0.5 ml of the preparation of active compound. After 24 hours, the degree of destruction is determined.

[2] = test system: Musca domestics, strain WHO(N); assay: Fly test; assay type: in vivo; settings: 6 h, read-out: activity (flies destroyed)
Procedure: Test animals: Musca domestics, strain WHO(N)
Solvent: 35 parts by weight of ethylene glycol mono-methyl ether
35 parts by weight of nonylphenol polyglycol ether
To produce a suitable formulation, three parts by weight of active compound are mixed with seven parts of the abovementioned solvent-emulsifier mixture and the emulsion concentrate thus obtained is diluted with water to the particular desired concentration.
2 ml of this preparation of active compound are pipetted onto paper filter discs (.o slashed. 9.5 cm) located in Petri dishes of a suitable size. After the discs have dried, 25 test animals are transferred into the Petri dishes and covered.
After 6 hours, the activity of the preparation of active compound is determined. The activity is expressed in %. 100% means that all flies have been destroyed; 0% means that no flies have been destroyed.

Aphis fabae = assay: Critical concentration test/root-systemic action; assay type: in vivo; settings: 48 h, 20 ppm in soil, infested after 7 days, evaluated after a further 2 days, read-out: Degree of destruction in % at active compound concentrations in ppm (root-systemic action)
Procedure: Critical concentration test/root-systemic action
Solvent: 4 parts by weight of acetone
as §1
To produce a suitable preparation of active compound, 1 part by weight of active compound is mixed with the stated amount of solvent, the stated amount of emulsifier is added and the concentrate is diluted with water to the desired concentration.
The preparation of active compound is intimately mixed with soil. The concentration of the active compound in the preparation is of practically no importance, only the amount by weight of active compound per unit volume of soil, which is given in ppm (=mg/1), being decisive. The treated soil is transferred into pots and these are planted with pregerminated broad beans. The active compound can in this way be taken up from the soil by the roots of the plants and be transported into the leaves.
After a further 2 days, the evaluation is made by counting or estimating the dead animals. The root-systemic action of the active compound is deduced from the mortality figures. It is 100% if all test animals have been killed and 0% if just as many test insects are still alive as in the case of the untreated control.

SMILES | logP (physchem) | inhibition at 10 ppm (Ctenocephalides felis) | activity compared with the prior art ([1]; 24 hours) | mortality at 100 ppm ([1]; 24 h) | further results
O=[N+]([O-])C1=C2N(Cc3ccc(Cl)nc3)CCN2CN(CCCCCO)C1 [II-13] | 0.97 |  |  |  | 
O=[N+]([O-])C1=C2N(Cc3ccc(Cl)nc3)CCCN2CN(CCOCC(F)(F)F)C1 [drawing 134, reference compound] |  |  |  |  | mortality at 1e-05 % (Nephotettix cincticeps): 0%; mortality at 0.0001 % (Nephotettix cincticeps): 60%; mortality at 0.001 % (Nephotettix cincticeps): 100%
O=[N+]([O-])C1=C2N(Cc3cnc(Cl)s3)CCN2CN(CCCCO)C1 [II-17] | 0.58 |  |  |  | 
O=C(NCCN1CC([N+](=O)[O-])=C2N(Cc3ccc(Cl)nc3)CCN2C1)OCc1ccccc1 [Example 18] |  | 100% | superior activity compared with the prior art |  | mortality at 100 ppm ([1]; 100 ppm, 24 hours): 100%
CNC(=O)OCCCN1CC([N+](=O)[O-])=C2N(Cc3ccc(Cl)nc3)CCN2C1 [drawing 135] |  |  |  |  | mortality at 1e-05 % (Nephotettix cincticeps): 100%; mortality at 0.0001 % (Nephotettix cincticeps): 100%; mortality at 0.001 % (Nephotettix cincticeps): 100%
CC(C)(C)OC(=O)NCCN1CC([N+](=O)[O-])=C2N(Cc3ccc(Cl)nc3)CCN2C1 [Example 16] |  | 100% | superior activity compared with the prior art | 100% | mortality at 1000 ppm [2]: 100%
CCOC(=O)NCCN1CC([N+](=O)[O-])=C2N(Cc3ccc(Cl)nc3)CCN2C1 [Example 3, 6,7-dihydro-6-(2-ethoxy-carbonylamino-ethyl)-8-nitro-(5H)-3-(2-chloropyridin-5-yl-methyl)-imidazolidino-[2,3-f] -pyrimidine] |  | 100% | superior activity compared with the prior art | 100% | 
O=[N+]([O-])C1=C2N(Cc3ccc(Cl)nc3)CCN2CN(CCCCCCO)C1 [II-14] | 0.74 |  |  |  | 
CC(C)(C)C(=O)NCCN1CC([N+](=O)[O-])=C2N(Cc3ccc(Cl)nc3)CCN2C1 |  |  |  |  | mortality at 20 ppm (Aphis fabae): 100%
CC(C)NC(=O)OCCN1CC([N+](=O)[O-])=C2N(Cc3ccc(Cl)nc3)CCN2C1 [Example 14] |  |  | superior activity compared with the prior art | 100% | 
